Source: paper PMC3480206 (Future microbiology, 2012)
Where two headings read alike, the source gives them in different places.

Columns and labels:
[1] = tested on: Mtb; settings: EBA study; cited from earlier work
[2] = tested on: Mtb; settings: cited from earlier work
[3] = tested on: Mtb gene clusters GC82 and GC120, iniBAC operon; settings: cited from earlier work
[4] = tested on: Mtb; settings: cited from earlier work; remark: listed apart in the source
[5] = tested on: Mtb; settings: at its MIC and at doses used to treat adult pulmonary TB; cited from earlier work
[6] = tested on: Mtb; settings: cited from earlier work; remark: listed apart in the source
[7] = tested on: Mycobacterium tuberculosis H37Rv; settings: cited from earlier work
[8] = tested on: Mtb; settings: cited from earlier work; remark: listed apart in the source
[9] = tested on: Mtb; settings: cited from earlier work; remark: listed apart in the source
[10] = PK evaluation on coadministration with second-line drugs; settings: mice, SQ109 and MXF coadministered
[11] = tested on: Mtb; settings: in vitro; cited from earlier work
[12] = tested on: Mtb; settings: mouse model of TB; cited from earlier work
[13] = tested on: Mtb; settings: versus linezolid; cited from earlier work
[14] = in vivo; cited from earlier work
[15] = tested on: Mycobacterium tuberculosis H37Rv; assay: In vitro drug interaction, checkerboard titration by 96-well microdilution; format: cell-based

## O=[N+]([O-])c1cn2c(n1)OC[C@@H](OCc1ccc(OC(F)(F)F)cc1)C2 [PA-824]
[1]
  early bactericidal activity: showed activity

## COc1c(N2CCNC(C)C2)c(F)cc2c(=O)c(C(=O)O)cn(C3CC3)c12 (stereo not drawn) [gatifloxacin]
[2]
  activity in mouse models: comparable to INH

## CC[C@@H](CO)NCCN[C@@H](CC)CO [EMB, ethambutol]
[3]
  Activity on Mtb gene clusters GC82 and GC120: Upregulates
[4]
  Effect on acid-fastness of Mtb: Decreases
[5]
  bacteriostatic or bactericidal: bacteriostatic
[6]
  MIC on Mtb: 5 to 7 µg/mL

## COc1nc2ccc(Br)cc2cc1[C@@H](c1ccccc1)[C@@](O)(CCN(C)C)c1cccc2ccccc12 [bedaquiline]
[7]
  improvement of the MIC of bedaquiline: four- to eight-times
[8]; bedaquiline with SQ109
  postantibiotic effect: 14 h
[8]; bedaquiline without SQ109
  postantibiotic effect: 9 h

## Cc1ncc([N+](=O)[O-])n1CCO [Metronidazole]
[9]
  efficacy in mouse models of latent TB: not effective

## CO[C@H]1/C=C/O[C@@]2(C)Oc3c(C)c(O)c4c(O)c(c(/C=N/N5CCN(C)CC5)c(O)c4c3C2=O)NC(=O)/C(C)=C\C=C\[C@H](C)[C@H](O)[C@@H](C)[C@@H](O)[C@@H](C)[C@H](OC(C)=O)[C@@H]1C [RIF, rifampicin, reference compound]
[7]
  improvement of RIF activity: eightfold

## COc1c(N2C[C@@H]3CCCN[C@@H]3C2)c(F)cc2c(=O)c(C(=O)O)cn(C3CC3)c12 [MXF, moxifloxacin, reference compound]
[2]
  activity in mouse models: comparable to INH
[10]
  pharmacology profile on coadministration: not affected

## C[C@]1(COc2ccc(N3CCC(Oc4ccc(OC(F)(F)F)cc4)CC3)cc2)Cn2cc([N+](=O)[O-])nc2O1 [Delamanid]
[1]
  early bactericidal activity: showed activity

## CC(=O)NC[C@H]1CN(c2ccc(N3CCSCC3)c(F)c2)C(=O)O1 [Sutezolid]
[11]
  antimycobacterial activity versus linezolid: better antimycobacterial activity
[12]
  antimycobacterial activity versus linezolid: better antimycobacterial activity
[13]
  killing in ex vivo whole-blood culture test: better time-dependent killing
[14]
  safety profile: improved safety profile compared with linezolid

## CC(C)/N=c1\cc2n(-c3ccc(Cl)cc3)c3ccccc3nc-2cc1Nc1ccc(Cl)cc1 [CFZ, Clofazimine, reference compound]
[15]; Mycobacterium tuberculosis, H37RV, read-out: MIC Alone
  MIC: 0.5 µg/mL
[15]; checkerboard SQ109 + CFZ, Mtb H37Rv
  MIC Combination: 0.062 µg/mL

## CC(=O)NC[C@H]1CN(c2ccc(N3CCOCC3)c(F)c2)C(=O)O1 [linezolid]
[1]
  early bactericidal activity: minimal killing activity
